Assays:
rat hepatocytes = assay: In vitro metabolic stability in cryopreserved hepatocytes (rat); format: in vitro ADME; settings: Sprague-Dawley Rat
Method: In vitro half-life values were determined and scaled to predict hepatic clearance (CLpred) and hepatic extraction using the well-stirred liver model with no correction for plasma protein as described in Obach et al., The Prediction of Human Pharmacokinetic Parameters from Preclinical and In Vitro Metabolism Data, J. of Pharmacology and Experimental Therapeutics, vol. 283, no. 1, pp. 46-58 (1997).

[1] = Pharmacokinetics assay, dog; format: in vivo, beagle dogs; settings: plasma, iv, Beagle Dog, intravenously 1 mg/kg
Description: Results are shown in FIG. 1A (IV administration) and FIG. 1B (oral administration), and in Table 2. […] Smaller Vdss in monkeys is correlated with higher plasma protein binding.

[2] = Metabolism and excretion of radiolabeled (14C) compound; format: in vivo; settings: SD rats, bile duct intact or cannulated, orally 5 mg/kg or intravenously 2 mg/kg
Method: Blood, bile, feces, and urine samples were collected from each rat for up to 168 hours.

MAO-B = target: T1, MAO-B (Homo sapiens, UniProt P27338); assay: Biochemical activity, MAO-B
T1 sequence (P27338 1-520): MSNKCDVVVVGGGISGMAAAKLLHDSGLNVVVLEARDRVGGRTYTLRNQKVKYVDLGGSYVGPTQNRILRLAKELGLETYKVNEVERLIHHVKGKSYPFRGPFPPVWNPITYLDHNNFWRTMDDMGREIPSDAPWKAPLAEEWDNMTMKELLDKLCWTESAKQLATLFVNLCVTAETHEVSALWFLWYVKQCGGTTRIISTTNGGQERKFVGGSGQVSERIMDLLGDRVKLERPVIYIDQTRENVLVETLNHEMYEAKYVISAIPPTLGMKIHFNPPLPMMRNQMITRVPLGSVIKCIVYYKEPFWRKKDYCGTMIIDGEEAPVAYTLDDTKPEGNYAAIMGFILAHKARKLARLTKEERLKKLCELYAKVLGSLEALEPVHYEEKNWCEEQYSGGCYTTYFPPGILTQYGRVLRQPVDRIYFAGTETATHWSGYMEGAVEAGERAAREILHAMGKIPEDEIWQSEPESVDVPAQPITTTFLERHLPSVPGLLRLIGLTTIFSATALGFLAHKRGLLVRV

plasma SSAO = target: T2, plasma SSAO (Homo sapiens, UniProt Q16853); assay: Multiple once daily dose study: plasma amine oxidase activity and methylamine; format: in vivo
T2 construct: from tissue; host or cells: plasma of healthy participants
T2 sequence (Q16853 27-763 limits assumed): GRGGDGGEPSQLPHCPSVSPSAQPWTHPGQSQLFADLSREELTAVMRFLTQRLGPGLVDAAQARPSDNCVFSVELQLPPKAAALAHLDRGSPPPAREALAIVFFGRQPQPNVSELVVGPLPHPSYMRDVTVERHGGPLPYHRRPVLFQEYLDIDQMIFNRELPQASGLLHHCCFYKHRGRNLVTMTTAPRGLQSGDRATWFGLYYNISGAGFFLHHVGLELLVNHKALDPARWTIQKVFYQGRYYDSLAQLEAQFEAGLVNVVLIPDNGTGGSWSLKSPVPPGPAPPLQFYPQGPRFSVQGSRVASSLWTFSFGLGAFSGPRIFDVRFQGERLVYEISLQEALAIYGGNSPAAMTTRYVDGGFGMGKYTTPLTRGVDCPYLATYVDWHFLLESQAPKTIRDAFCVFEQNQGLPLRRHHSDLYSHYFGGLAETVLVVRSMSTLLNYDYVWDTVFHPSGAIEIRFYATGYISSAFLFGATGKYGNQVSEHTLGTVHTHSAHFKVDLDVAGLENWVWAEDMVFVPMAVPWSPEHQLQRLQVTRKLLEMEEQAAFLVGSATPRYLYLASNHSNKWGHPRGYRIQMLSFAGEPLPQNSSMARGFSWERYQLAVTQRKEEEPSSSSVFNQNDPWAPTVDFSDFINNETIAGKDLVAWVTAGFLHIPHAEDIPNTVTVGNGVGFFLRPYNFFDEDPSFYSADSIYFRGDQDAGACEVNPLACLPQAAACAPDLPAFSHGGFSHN
Method: 3 groups of 8 healthy participants were randomized to receive multiple once daily (QD) doses of Compound 2 or matching placebo in a 3:1 ratio for 7 days (1 mg and 4 mg) or 14 days (10 mg). Plasma levels of Compound 2 and PD biomarkers (plasma amine oxidase activity and methylamine levels) were determined at pre-dose and various timepoints post-dose. Safety was assessed for up to 14 days after last dose.

| IC50 (MAO-B) | duration of continued suppression of plasma SSAO activity after last dose (plasma SSAO; 10 mg cohort (QD, 14 days)) | inhibition of plasma SSAO activity (plasma SSAO; Day 1, all dose cohorts) | Structure (SMILES) | Hepatic Extraction (rat hepatocytes) | In vitro Metabolic CLpred (rat hepatocytes; well-stirred liver model) | half-life ([1]; read-out: IV Terminal t1/2 (converted)) | Vd ([1]; read-out: Vdss) | metabolism and major elimination pathway [2] | Plasma methylamine levels (plasma SSAO; QD 1, 4, 10 mg) |
| --- | --- | --- | --- | --- | --- | --- | --- | --- | --- |
|  |  |  | Cn1cc(C(=O)O)c2ccc(N3CCC(OCc4c(-c5c(Cl)cccc5Cl)noc4C4CC4)CC3)cc21 [Compound 1] | 47.3 ± 0.78% | 26.2 ± 0.5 mL/min/kg | 5.67 h | 1.92 L/kg | metabolized into an acyl glucuronide metabolite prior to biliary excretion |  |
| > 50 µM | up to 2 weeks | Near complete inhibition | COC1CCN(c2ncc(OC/C(=C/F)CN)cn2)CC1 [Compound 2] |  |  |  |  |  | increased in a greater than dose proportional manner |
